From PMC9784957 (Viruses, 2022)
Read-outs that look alike come from different tables or passages of the source.

Experiments:
HXB2 pseudotyped virus = test: microbe, parasite or virus in culture; assay type: cell-based, HIV-1; conditions: for Increase in IC50 (loss of activity) when compound added 2 h after virus: HXB2 pseudotyped virus
[1] = system: gp41 hydrophobic pocket metallopeptide with Lys-574 replaced with norleucine; assay type: binding, HIV-1; conditions: Nle-574 receptor vs Lys-574 receptor
[2] = Resazurin cell viability assay run concomitantly with the fusion assays; assay type: cell-based; conditions: human, TZM-bl cells, approximated
[3] = system: HIV-1 HXB2 Env pseudotyped virus; test: Virus-cell fusion (infectivity) assay, HXB2 Env pseudotyped virus, TZM-bl cells; assay type: cell-based; conditions: for EC50 / EC90 / IC50: Human immunodeficiency virus 1, HXB2, TZM-bl; for EC50: read-out: Antiviral Activity EC50; for EC90: read-out: Antiviral Activity EC90; for IC50: read-out: IC50 HXB2
[4] = system: HIV-1 HXB2 Env pseudotyped virus; parameters: method as in earlier work; conditions: virus-cell fusion assay using lab adapted strain HXB2; cited from earlier work
[5] = system: HXB2 Env mediated cell-cell fusion; test: Cell-cell fusion assay, HL2/3 effector cells and TZM-bl target cells; assay type: cell-based, HIV-1; conditions: for Potency enhancement against cell-cell fusion upon STP esterification: ester vs acid; for IC50: Human immunodeficiency virus 1, HXB2, read-out: IC50 (CCF)
[6] = biological target: T1, gp41 hydrophobic pocket (FeII(env2.0)3) (Human immunodeficiency virus type 1 group M subtype B, UniProt P04578); test: Fluorescence intensity binding affinity assay, displacement of C18FL from FeII; parameters: species or system HIV-1; conditions: for Increase in affinity for the HP of STP ester compared to acid, change in IC50: ester vs acid
T1 sequence (P04578 565-584): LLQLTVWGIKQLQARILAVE

[7] = biological target: T1, gp41 hydrophobic pocket (FeII(env2.0)3); conditions: equilibrium binding to the HP; cited from earlier work
[8] = system: HXB2 Env mediated cell-cell fusion; parameters: method as in earlier work; conditions: cell-cell fusion assay; cited from earlier work
[9] = system: Ampho-MLV Env pseudotyped virus; test: Virus-cell fusion assay, Ampho-MLV Env pseudotyped virus; assay type: cell-based
TZM-bl cells = test: Resazurin cell viability assay run concomitantly with the fusion assays; assay type: cell-based; conditions: at 100 µM, Ampho-MLV Env experiment
[10] = system: HIV-1 JRFL Env pseudotyped virus; test: Virus-cell fusion assay, JRFL Env pseudotyped virus; assay type: cell-based
Aqueous solubility = assay type: physicochemical
[11] = in antiviral assay, read-out: Antiviral Activity CC50
[12] = in cell-cell fusion assay, read-out: Inhibition of Cell-Cell Fusion CC50
[13] = ester vs acid, pseudoviral infectivity

Row | SMILES | Increase in IC50 (loss of activity) when compound added 2 h after virus (HXB2 pseudotyped virus) | CC50 [2, 11] | CC50 [2, 12] | EC50 [3] | EC90 [3] | Improvement of antiviral activity (EC50) by STP esterification [3, 13] | Increase in affinity for the HP of STP ester compared to acid, change in IC50 [6] | Ki [6] | also measured
1 | c1cc(CN2CCCNCCNCCCNCC2)ccc1CN1CCCNCCNCCCNCC1 [AMD3100, reference compound] |  |  |  |  |  |  |  |  | Residual efficacy when added 2 h after virus (HXB2 pseudotyped virus; at 50X EC50): 5%
2 | COC(=O)c1cccc(Cn2ccc3ccc(-c4ccc5ccn(Cc6cccc(C(=O)Oc7c(F)c(F)c(S(=O)(=O)O)c(F)c7F)c6)c5c4)cc32)c1 [Compound 1-STP] | 14 fold | 20 ± 3 µM | > 10 µM | 0.3 ± 0.2 µM | 2.9 ± 1.6 µM | 10 fold |  |  | Increase in KI on replacing Lys-574 with norleucine [1]: 6 fold; EC90 difference, STP ester compared to acid [3, 13]: 14 fold
3 | COC(=O)c1cccc(Cn2ccc3ccc(-c4ccc5ccn(Cc6cccc(C(=O)O)c6)c5c4)cc32)c1 [Compound 1] | 2 fold | 22 ± 3 µM | > 10 µM | 3.2 ± 1.6 µM | 17 ± 13 µM | greater than 10 fold | no change |  | IC50 [4]: 3 µM; Increase in KI on replacing Lys-574 with norleucine [1]: 5 fold; Potency enhancement against cell-cell fusion upon STP esterification [5]: about 2 fold; Ki [7]: 1 ± 0.5 µM; IC50 [8]: 0.4 µM
4 | Cn1ncc2ccc(-c3ccc4cnn(Cc5ccc(F)c(C(=O)Oc6c(F)c(F)c(S(=O)(=O)O)c(F)c6F)c5)c4c3)cc21 [Compound 2-STP] | 14 fold | ≥ 100 µM | ≥ 200 µM | 5 ± 4 µM | 59 ± 22 µM | 7 fold | 3 fold | ~10 µM | Activity against Ampho-MLV Env pseudotyped particles [9]: artifact of the 40% cytotoxicity at 100 µM; Increase in IC50 on Nle-574 substitution [1]: 2.2 fold; Cytotoxicity (TZM-bl cells): 40%; Reduction in efficacy against JRFL Env compared to HXB2 Env [10]: 2 fold
5 | Cn1ncc2ccc(-c3ccc4cnn(Cc5ccc(F)c(C(=O)O)c5)c4c3)cc21 [Compound 2] | 2 fold | ≥ 356 µM | ≥ 113 µM | 35 ± 7 µM | 800 ± 190 µM | 7 fold | 3 fold | 25 ± 5 µM | IC50 [3]: 35 µM; IC50 [5]: ≥ 50 µM; Potency enhancement against cell-cell fusion upon STP esterification [5]: 7 fold
6 | CCOC(=O)c1cc(O)n(-c2ccc(C(=O)Oc3c(F)c(F)c(S(=O)(=O)O)c(F)c3F)cc2)n1 [Compound 3-STP] |  | > 40 µM | > 40 µM | 9 ± 2 µM | 44 ± 15 µM | > 10 fold | 10 fold | ~20 µM | Activity against Ampho-MLV Env pseudotyped particles [9]: no activity; activity at 40 µM (HXB2 pseudotyped virus; Human immunodeficiency virus 1, HXB2, 2 h, read-out: Residual activity when added after 2 h): 12%; Reduction in efficacy against JRFL Env compared to HXB2 Env [10]: 4 fold
7 | CCOC(=O)c1cc(O)n(-c2ccc(C(=O)O)cc2)n1 [Compound 3] |  | > 100 µM | > 100 µM | > 100 µM |  | greater than 10 fold | 10 fold | 177 ± 12 µM | Aqueous solubility (Aqueous solubility): high aqueous solubility; IC50 [3]: > 100 µM; IC50 HXB2 ([3]; virus-cell fusion assay using lab adapted strain HXB2): No measurable antiviral potency; IC50 [5]: > 100 µM
8 | Cc1ccnc2c1NC(=O)c1cccnc1N2C1CC1 [nevirapine, reference compound] | 2.7 fold |  |  |  |  |  |  |  | 
